Reference: US11970494B2, “6-heteroaryloxy benzimidazoles and azabenzimidazoles as JAK2 inhibitors” (Ajax Therapeutics, Inc., priority 2021, dated 2024)

Tests used:
[1] = molecular target: T1, JAK2 (JH1 domain-catalytic, Y1007F,Y1008F) kinase (Homo sapiens, UniProt O60674, Y1007F/Y1008F); test: JAK2 Binding Assay (JAK2 JH1 Domain Binding Assay); settings: JAK2 JH1 domain binding, qPCR detection; read-out: JAK2 Kd
T1 construct: made in house; host or cells: transiently transfected HEK293 cells

[2] = test system: JAK2-mediated pSTAT5 signaling in constitutively active essential thrombocytopenia cells carrying the V617F mutation; test: SET2-pSTAT5 Cellular Assay; assay type: cell-based; settings: Homo sapiens, SET-2; SET2 cells, pSTAT5, 4 hours, MSD; read-out: IC50
Protocol: This assay measures inhibition of JAK2-mediated pSTAT5 signaling in constitutively active essential thrombocytopenia cells carrying the V617F mutation. Cells are harvested from a flask into cell culture medium, and the number of cells is counted. The cells are diluted with culture medium and 100 μL of cell suspension (50000/well) is added into each well of a 96-well cell culture plate. A solution of test compound is added to the assay plate. The plates are covered with a lid and placed in a 37° C. 5% CO2 incubator for 4 hours. After 4 hours, the cells are spun, and the cell pellets are re-suspended with 100 μL cold PBS. Then, the cells are spun again at 4° C. and 4000 rpm for 5 min. PBS is aspirated, and 25 μL lysis buffer (with protease and phosphatase inhibitor cocktail) is added to each cell pellet. The cell lysate is shaken at 4° C. for 20 min to fully lyse the cells. The cell lysate is spun at 4° C. and 4000 rpm for 15 min, and then the supernatant is transferred into a new plate and stored at −80° C. Meso-scale discovery (MSD) is used to analyze plates as follows: a standard MSD plate is coated with capture antibody in PBS (40 μL/well) and is incubated at 4° C. overnight with shaking. The MSD plate is washed three times with 150 μL/well of 1×MSD Wash Buffer (Tris-buffered saline with 0.1% Tween® 20 detergent, TBST). The MSD plates are then blocked with 150 μL of blocking buffer (5% BSA in TBST) and shaken for 1 h at room temperature and 600 rpm. The MSD plate is washed three times with 150 μL/well of 1×MSD Wash Buffer (TBST). Sample lysates are then added to MSD plates (25 μL/well) and shaken for 1 h at room temperature and 600 rpm. The MSD plate is washed three times with 150 μL/well of 1×MSD Wash Buffer (TBST). Detection antibody (prepared in Antibody Detection buffer, 1% BSA in 1×TBST) is then added to the MSD plates, and they are shaken for 1 h at room temperature and 600 rpm. The MSD plate is washed three times with 150 μL/well of 1×MSD Wash Buffer (TBST). A secondary detection antibody (prepared in Antibody Detection buffer, 1% BSA in 1×TBST) is then added to the MSD plates, and they are shaken for 1 h at room temperature and 600 rpm. The MSD plate is washed three times with 150 μL/well of 1×MSD Wash Buffer (TBST). MSD reading buffer (1×) is added to the plates (150 μL/well), and they are diluted from 4× with water. The plates are imaged using an MSD imaging instrument according to the manufacturer's instructions.

[3] = Hepatocyte Stability Assay, rat hepatocytes; assay type: in vitro ADME; settings: cryopreserved hepatocytes, read-out: Rat Heps CLint
Protocol: 10 mM stock solutions of test compound and positive control are prepared in DMSO. Stock solutions are diluted to 100 μM by combining 198 μL of 50% acetonitrile/50% water and 2 μL of 10 mM stock solution. Verapamil is used as positive control in the assay. Vials of cryopreserved hepatocytes are thawed in a 37° C. water bath with gently shaking. The contents are poured into the 50 mL thawing medium conical tube. Vials are centrifuged at 100 g for 10 minutes at room temperature. Thawing medium is aspirated and hepatocytes are re-suspended with serum-free incubation medium to yield ˜1.5×10^6 cells/mL. Cell viability and density are counted using a Trypan Blue exclusion, and then cells are diluted with serum-free incubation medium to a working cell density of 0.5×10^6 viable cells/mL. A portion of the hepatocytes at 0.5×10^6 viable cells/mL are boiled for 5 min prior to adding to the plate as negative control to eliminate the enzymatic activity so that little or no substrate turnover should be observed. Aliquots of 198 μL hepatocytes are dispensed into each well of a 96-well non-coated plate. The plate is placed in the incubator for approximately 10 minutes. Aliquots of 2 μL of the 100 μM test compound and 2 μL positive control are added into respective wells of a non-coated 96-well plate to start the reaction. The final concentration of test compound is 1 μM. This assay is performed in duplicate. The plate is incubated in the incubator for the designed time points. 25 μL of contents are transferred and mixed with 6 volumes (150 μL) of cold acetonitrile with internal standard (100 nM alprazolam, 200 nM labetalol, 200 nM caffeine and 200 nM diclofenac) to terminate the reaction at time points of 0, 15, 30, 60, 90 and 120 minutes. Samples are centrifuged for 25 minutes at 3,220 g and aliquots of 150 μL of the supernatants are used for LC-MS/MS analysis.

T1 sequence (O60674 849-1124 Y1007F/Y1008F limits assumed): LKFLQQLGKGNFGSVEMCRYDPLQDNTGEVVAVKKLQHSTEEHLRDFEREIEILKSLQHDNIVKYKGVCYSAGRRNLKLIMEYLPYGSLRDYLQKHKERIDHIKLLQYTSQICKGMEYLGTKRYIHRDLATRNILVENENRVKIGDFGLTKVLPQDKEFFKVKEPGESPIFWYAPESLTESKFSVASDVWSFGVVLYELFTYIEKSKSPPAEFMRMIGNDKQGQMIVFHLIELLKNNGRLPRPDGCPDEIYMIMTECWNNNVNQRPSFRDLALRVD

Kd [1] | IC50 [2] | CLint scaled at 1 μM [3] | Compound
< 10 nM | 200 to 1000 nM | 35 to 45 mL/min/kg | CC(=O)Nc1cc(Oc2cnc3nc(Nc4cc5n(n4)CCCC54CC4)n(C)c3c2C#N)ccn1 [Example I-114, N-(4-((7-cyano-2-((6′,7′-dihydro-5′H-spiro[cyclopropane-1,4′-pyrazolo[1,5-a]pyridin]-2′-yl)amino)-1-methyl-1H-imidazo[4,5-b]pyridin-6-yl)oxy)pyridin-2-yl)acetamide]
< 10 nM | 200 to 1000 nM | < 17 mL/min/kg | CC(=O)Nc1cc(Oc2cnc3nc(Nc4cc5n(n4)CCOCC5(C)C)n(C)c3c2C#N)ccn1 [Example I-118, N-(4-((7-cyano-2-((4,4-dimethyl-4,5,7,8-tetrahydropyrazolo[1,5-d][1,4]oxazepin-2-yl)amino)-1-methyl-1H-imidazo[4,5-b]pyridin-6-yl)oxy)pyridin-2-yl)acetamide]
< 10 nM | < 125 nM | < 17 mL/min/kg | Cn1c(Nc2cc3n(n2)CCC32CCC2)nc2ncc(Oc3ccnc(NC(=O)C4CC4)c3)c(C#N)c21 [Example I-122, N-(4-((7-cyano-2-((5′,6′-dihydrospiro[cyclobutane-1,4′-pyrrolo[1,2-b]pyrazol]-2′-yl)amino)-1-methyl-1H-imidazo[4,5-b]pyridin-6-yl)oxy)pyridin-2-yl)cyclopropanecarboxamide]

Further lines, the compound ahead of its results:

Compound | Kd [1] | IC50 [2] | CLint scaled at 1 μM [3]
CC(=O)Nc1cc(Oc2cnc3nc(Nc4cc(C(F)(F)F)cn(C)c4=O)n(C)c3c2Cl)c(F)cn1 [Example I-88, N-(4-((7-chloro-1-methyl-2-((1-methyl-2-oxo-5-(trifluoromethyl)-1,2-dihydropyridin-3-yl)amino)-1H-imidazo[4,5-b]pyridin-6-yl)oxy)-5-fluoropyridin-2-yl)acetamide] | < 10 nM | < 125 nM | 17 to 35 mL/min/kg
CCN1CCN(Cc2ccc(Nc3nc4ccc(Oc5ccnc(NC(C)=O)c5)cc4n3C)cc2C(F)(F)F)CC1 [Example R-1, reference compound] | < 10 nM | 200 to 1000 nM | 35 to 45 mL/min/kg
